Data on one compound can be found in PMC9578445, “Association of respiratory failure with inhibition of NaV1.6 in the phrenic nerve” (Channels, 2022).

In series [1] the target is Transporter, Norepinephrine NET (Homo sapiens, UniProt P23975). As to the kind of experiment: Panlabs selection. Format: binding. The text has this: (§1) Supplement KCHL_A_2122309_SM6747.docx, table 1 | column: SSI-5; SSI-3; SSI-4; SSI-1
The target of series [2] is hERG (Homo sapiens, UniProt Q12809). Nature of the series: Functional Ion Channel Panel hERG. Format: biochemical. As to conditions: read-out: hERG %inh.
Excerpt: as §1

In series [3] the target is Iks (Homo sapiens, UniProt P51787). As to the kind of experiment: Functional Ion Channel Panel Iks. Format: biochemical. As to conditions: read-out: Iks %inh.
Excerpt: as §1

For series [4], the target named is Nicotinic Acetylcholine. As to the kind of experiment: Panlabs selection. Format: binding. The text has this: Supplement KCHL_A_2122309_SM6747.docx, table 1 | column: SSI-5; SSI-4; SSI-1

SMILES strings stand for the structures.

Sequence of Iks (P51787 whole entry): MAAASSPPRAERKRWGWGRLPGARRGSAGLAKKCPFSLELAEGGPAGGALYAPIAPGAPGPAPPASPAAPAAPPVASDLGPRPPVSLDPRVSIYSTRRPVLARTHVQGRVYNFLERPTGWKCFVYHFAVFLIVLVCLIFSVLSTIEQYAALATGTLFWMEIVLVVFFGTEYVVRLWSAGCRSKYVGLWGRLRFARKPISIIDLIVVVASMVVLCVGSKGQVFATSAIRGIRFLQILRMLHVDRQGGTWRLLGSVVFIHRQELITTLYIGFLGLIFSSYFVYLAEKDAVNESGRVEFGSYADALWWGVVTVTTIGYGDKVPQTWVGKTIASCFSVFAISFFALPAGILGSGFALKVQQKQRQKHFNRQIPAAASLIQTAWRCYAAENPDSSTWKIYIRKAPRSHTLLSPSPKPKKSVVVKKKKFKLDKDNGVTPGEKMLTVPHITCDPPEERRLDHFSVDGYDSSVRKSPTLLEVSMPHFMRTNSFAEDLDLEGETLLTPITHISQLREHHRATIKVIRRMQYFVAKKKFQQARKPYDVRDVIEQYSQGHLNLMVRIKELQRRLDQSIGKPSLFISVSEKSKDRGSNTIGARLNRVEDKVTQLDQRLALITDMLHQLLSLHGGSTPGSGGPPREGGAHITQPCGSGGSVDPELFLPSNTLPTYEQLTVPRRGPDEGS
Sequence of Transporter, Norepinephrine NET (P23975 whole entry): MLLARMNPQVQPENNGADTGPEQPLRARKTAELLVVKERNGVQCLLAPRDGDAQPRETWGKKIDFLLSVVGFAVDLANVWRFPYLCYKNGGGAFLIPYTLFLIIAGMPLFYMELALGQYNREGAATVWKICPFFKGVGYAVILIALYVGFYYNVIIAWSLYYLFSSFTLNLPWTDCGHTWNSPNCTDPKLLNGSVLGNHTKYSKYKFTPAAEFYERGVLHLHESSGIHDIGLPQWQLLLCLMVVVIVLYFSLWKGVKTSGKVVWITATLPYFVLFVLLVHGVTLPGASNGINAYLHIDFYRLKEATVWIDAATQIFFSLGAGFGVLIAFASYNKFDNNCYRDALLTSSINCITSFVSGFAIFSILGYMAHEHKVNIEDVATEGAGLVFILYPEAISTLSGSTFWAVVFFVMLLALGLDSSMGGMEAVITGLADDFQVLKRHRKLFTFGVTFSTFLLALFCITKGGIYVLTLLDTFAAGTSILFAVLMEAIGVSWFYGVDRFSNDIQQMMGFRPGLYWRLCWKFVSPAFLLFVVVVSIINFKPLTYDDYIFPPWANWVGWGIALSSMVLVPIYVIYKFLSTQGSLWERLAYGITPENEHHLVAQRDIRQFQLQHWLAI
Sequence of hERG (Q12809 whole entry): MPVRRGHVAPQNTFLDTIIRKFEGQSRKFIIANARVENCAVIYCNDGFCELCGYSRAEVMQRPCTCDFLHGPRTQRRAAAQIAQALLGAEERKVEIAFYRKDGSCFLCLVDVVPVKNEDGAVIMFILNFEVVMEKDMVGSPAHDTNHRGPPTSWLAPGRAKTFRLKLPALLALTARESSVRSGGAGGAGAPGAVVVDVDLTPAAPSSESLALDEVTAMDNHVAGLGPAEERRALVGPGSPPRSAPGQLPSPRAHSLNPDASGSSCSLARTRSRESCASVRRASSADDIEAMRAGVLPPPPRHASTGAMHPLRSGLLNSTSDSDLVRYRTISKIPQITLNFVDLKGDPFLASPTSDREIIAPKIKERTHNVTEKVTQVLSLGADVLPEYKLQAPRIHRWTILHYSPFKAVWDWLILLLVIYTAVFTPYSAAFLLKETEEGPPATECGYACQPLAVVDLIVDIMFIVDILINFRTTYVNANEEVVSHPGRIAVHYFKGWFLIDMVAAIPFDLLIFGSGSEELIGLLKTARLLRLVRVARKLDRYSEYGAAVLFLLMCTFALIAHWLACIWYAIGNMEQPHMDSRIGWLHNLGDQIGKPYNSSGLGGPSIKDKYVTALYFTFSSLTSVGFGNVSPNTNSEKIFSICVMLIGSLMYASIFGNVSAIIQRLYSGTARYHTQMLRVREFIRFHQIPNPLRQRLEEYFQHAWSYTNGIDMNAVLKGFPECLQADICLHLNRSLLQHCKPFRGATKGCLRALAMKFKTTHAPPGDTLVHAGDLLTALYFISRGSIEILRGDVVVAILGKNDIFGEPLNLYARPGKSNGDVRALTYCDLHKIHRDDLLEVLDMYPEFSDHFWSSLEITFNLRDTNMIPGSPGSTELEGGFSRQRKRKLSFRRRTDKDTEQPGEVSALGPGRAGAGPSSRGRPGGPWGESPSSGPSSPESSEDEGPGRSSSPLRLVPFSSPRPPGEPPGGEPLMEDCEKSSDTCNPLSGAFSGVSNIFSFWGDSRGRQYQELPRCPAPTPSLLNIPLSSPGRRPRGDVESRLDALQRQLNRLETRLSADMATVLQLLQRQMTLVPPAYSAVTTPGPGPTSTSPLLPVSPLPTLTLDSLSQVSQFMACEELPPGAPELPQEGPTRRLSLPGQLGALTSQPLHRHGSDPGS

`O=S(=O)(Nc1nccs1)c1cc(Cl)c(NCCCCNC[C@H]2CCCN2)cc1F` [SSCI-1]: the values for the Ki in series [1] and in series [4] were 3.93 µM and greater than 10 µM, respectively. Also, the values for the inhibition at 30 µM in series [2] and in series [3] were 22% and -1%, respectively.
